The record followed here is patent publication EP4582413A1, “ARYLTETRAHYDROPYRIDINE COMPOUND AND PEST CONTROL AGENT” (priority 2022, dated 2024).

Format in all cases: in vivo
The subject of one assay is Trichostrongylus axei. The experiment in a line: Effect test for Trichostrongylus axei. Also on record: concentration or dose not given beside the values. The conditions noted are these: test chemical solution B added to eggs in 96-well plate, unhatched eggs and inactive larvae counted 4 days after addition, 25°C, relative to untreated plot. On the procedure:
Agar medium with 1% potato dextrose was aliquoted into 60-µl portions in a 96-well plate, and 30 µl of sterilized water containing Trichostrongylus axei eggs and a freeze-dried Escherichia coli OP50 strain (five eggs, 10 µg/10 µl Escherichia coli) was added to each well. From above, 10 µl of test chemical solution B of the presently invented compound was added to each well, and the plate was left to stand under dark conditions at 25°C.

Assay [1] deals with brown rice planthoppers (Nilaparvata lugens). The experiment in a line: Insecticidal test for brown rice planthoppers. To be noted: Nilaparvata lugens, 144 h; 500 ppm chemical solution, rice leaf sheaths soaked, third-instar larvae, six days, 25°C; read-out: death rate. The essentials: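 Rice leaf sheaths dipped ~10 s in 500 ppm compound solution (emulsion diluted in water with spreader), air-dried, then infested with five third-instar larvae per tube at 25 °C. Mortality scored after 6 days, death rate calculated, in duplicate.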

Assay [2] concerns western flower thrips (Frankliniella occidentalis). As to the kind of experiment: Insecticidal activity against western flower thrips. To be noted: Frankliniella occidentalis, 48 h; 500 ppm chemical solution sprinkled (2.5 mg/cm^2), larvae on common bean leaf, after 2 days; read-out: death rate. Summed up: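 Bean leaf squares on wet filter paper inoculated with 20 larvae. Compound emulsion diluted with spreader-containing water to 500 ppm and sprayed at 2.5 mg/cm^2 by rotary tower. Run in duplicate.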

Assay [3] concerns diamondback moths (Plutella xylostella). As to the kind of experiment: Insecticidal test for diamondback moths. The conditions noted are these: Plutella xylostella, 144 h; 500 ppm chemical solution, leaves soaked, third-instar larvae, six days, 25°C; read-out: death rate. The essentials: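 Leaves dipped about 10 s in a 500 ppm aqueous dilution of an emulsion formulation with spreader, then air-dried. Five third-instar larvae released per dish and held at 25 °C. Tested in duplicate.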

Assay [4] relates to cat fleas (Ctenocephalides felis). The experiment in a line: whole plant or invertebrate. To be noted: 72 h, read-out: death rate. Summed up: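 Glass containers (25 cm² inner surface) were coated with 250 µl of a 1000 ppm acetone solution, and the acetone was evaporated to leave a dry film. Five mixed-sex adult fleas were confined per container at 25°C. Mortality was scored after 3 days.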

Regarding `O=C(Nc1ncc(Cl)cc1F)C1=C(O)CC(c2cnc(Cl)c(-c3ccc(F)cc3)c2)NC1=O` (stereo not shown) [2-232], in the assay on Trichostrongylus axei, the “efficacy (%)” value is reported as at least 50%.

Consider `O=C(Nc1ccc(Cl)cn1)C1=C(O)CC(c2cnc(Cl)c(-c3ccc(F)cc3)c2)NC1=O` (stereo not shown) [2-220], for which the “efficacy (%)” value in the assay on Trichostrongylus axei was at least 50%.

As to `O=C(Nc1nc[nH]n1)C1=C(O)CC(c2cnc(Cl)c(-c3ccc(F)cc3)c2)NC1=O` (stereo not shown) [2-291], in the assay on Trichostrongylus axei, the “efficacy (%)” value is given as at least 50%.

`Cc1cccc(-c2cc(C3CC(O)=C(C(=O)Nc4ccc(F)cn4)C(=O)N3)cnc2Cl)c1` (stereo not shown) [2-252]: the “efficacy (%)” value with Trichostrongylus axei is listed as at least 50%.

As for `O=C(Nc1ncc(Cl)cc1F)C1=C(O)CC(c2cnc(C(F)(F)F)c(-c3ccc(F)nc3)c2)NC1=O` (stereo not shown) [2-181], the “efficacy (%)” value in the assay on Trichostrongylus axei was at least 50%.

On to `O=C(Nc1ccc(F)cn1)C1=C(O)CC(c2nc(-c3ccc(F)c(Cl)c3)no2)NC1=O` (stereo not shown) [3-141], for which the “efficacy (%)” value with Trichostrongylus axei is reported as at least 50%.

For the compound `O=C(Nc1ccc(F)cn1)C1=C(O)CC(c2nc(-c3cncc(F)c3)no2)NC1=O` (stereo not shown) [3-083], the “efficacy (%)” value in the assay with Trichostrongylus axei is at least 50%.

Turning to `O=C(Nc1ccc(Br)cn1)C1=C(O)CC(c2cnc(C(F)(F)F)c(-c3ccc(F)nc3)c2)NC1=O` (stereo not shown) [2-177], in the assay on Trichostrongylus axei, the “efficacy (%)” value is on record as at least 50%.

Take `Cc1ccccc1-c1cc(C2CC(O)=C(C(=O)Nc3ccc(F)cn3)C(=O)N2)cnc1C(F)(F)F` (stereo not shown) [2-248]: the “efficacy (%)” value with Trichostrongylus axei is at least 50%.

`O=C(Nc1ccc(Cl)cn1)C1=C(O)CC(c2nc(-c3cccc(F)c3)no2)NC1=O` (stereo not shown) [3-180]: the “efficacy (%)” value in the assay with Trichostrongylus axei was at least 50%.

For the compound `Cc1cccc(-c2cc(C3CC(O)=C(C(=O)Nc4ccc(Cl)nc4)C(=O)N3)cnc2Cl)c1` (stereo not shown) [2-254], the “efficacy (%)” value in the assay with Trichostrongylus axei was at least 50%.

In the case of `O=C(Nc1ccc(F)cn1)C1=C(O)CC(c2nc(-c3cncs3)no2)NC1=O` (stereo not shown) [3-097], the “efficacy (%)” value in the assay on Trichostrongylus axei was at least 50%.

As to `Cc1cccc(-c2cc(C3CC(O)=C(C(=O)Nc4ccc(C#N)nc4)C(=O)N3)cnc2Cl)c1` (stereo not shown) [2-266], in the assay with Trichostrongylus axei, the “efficacy (%)” value is given as at least 50%.

With `O=C(Nc1ccc(Cl)cn1)C1=C(O)CC(c2nc(-c3ccc(F)nc3)no2)NC1=O` (stereo not shown) [3-102], the “efficacy (%)” value with Trichostrongylus axei is at least 50%.

On to `COc1cccc(-c2cc(C3CC(O)=C(C(=O)Nc4ccc(F)cn4)C(=O)N3)cnc2C(F)(F)F)c1` (stereo not shown) [2-247], for which the “efficacy (%)” value in the assay on Trichostrongylus axei is given as at least 50%.

On to `O=C(Nc1ccc(C(F)(F)F)cn1)C1=C(O)CC(c2cnc(C(F)(F)F)c(-c3ccc(F)nc3)c2)NC1=O` (stereo not shown) [2-179], for which the “efficacy (%)” value in the assay with Trichostrongylus axei is on record as at least 50%.

For `O=C(Nc1ccc(F)cc1)C1=C(O)CC(c2ccc(C(F)(F)F)c(-c3cncc(F)c3)c2)NC1=O` (stereo not shown) [1-002], the mortality at 500 µg/mL in assay [1], in assay [2] and in assay [3] was at least 90% in each case. Further, in assay [4], the mortality at 10 µg/cm2 was at least 50%.

For the compound `Cc1cccc(-c2cc(C3CC(O)=C(C(=O)Nc4ccc(C#N)cc4)C(=O)N3)cnc2Cl)c1` (stereo not shown) [2-269], the mortality at 500 µg/mL in assay [1], in assay [2] and in assay [3] was at least 90% each time. In addition, in assay [4], the mortality at 10 µg/cm2 was at least 50%.

Regarding `O=C(Nc1ccccn1)C1=C(O)CC(c2nc(-c3cccc(F)c3)no2)NC1=O` (stereo not shown) [3-185], the mortality at 500 µg/mL in assay [1], in assay [2] and in assay [3] was at least 90% in each case. The mortality at 10 µg/cm2 in assay [4] is at least 50%.

In the case of `O=C(Nc1ccccn1)C1=C(O)CC(c2nc(-c3ccc(F)cc3)no2)NC1=O` (stereo not shown) [3-184], the mortality at 500 µg/mL in assay [1], in assay [2] and in assay [3] was at least 90% in each case. For the same compound, the mortality at 10 µg/cm2 in assay [4] was at least 50%.

As for `O=C(Nc1cncc(F)c1Br)C1=C(O)CC(c2cnc(Cl)c(-c3cnccc3F)c2)NC1=O` (stereo not shown) [2-139], the mortality at 500 µg/mL in assay [1], in assay [2] and in assay [3] was at least 90% each time. The mortality at 10 µg/cm2 in assay [4] is at least 50%.

As for `O=C(Nc1ccc(F)cc1)C1=C(O)CC(c2nc(-c3cc(F)cc(F)c3)no2)NC1=O` (stereo not shown) [3-034], the mortality at 500 µg/mL in assay [1], in assay [2] and in assay [3] was at least 90% throughout. Besides, in assay [4], the mortality at 10 µg/cm2 was at least 50%.

Regarding `Cc1ccnc(NC(=O)C2=C(O)CC(c3nc(-c4ccncc4C)no3)NC2=O)c1` (stereo not shown) [3-176], the mortality at 500 µg/mL in assay [1], in assay [2] and in assay [3] was at least 90% throughout. For the same compound, in assay [4], the mortality at 10 µg/cm2 is at least 50%.

Regarding `Cc1cccc(-c2cc(C3CC(O)=C(C(=O)Nc4cnccn4)C(=O)N3)cnc2Cl)c1` (stereo not shown) [2-261], the mortality at 500 µg/mL in assay [1], in assay [2] and in assay [3] was at least 90% each time. Further, the mortality at 10 µg/cm2 in assay [4] is at least 50%.

As for `O=C(Nc1cc(F)ccn1)C1=C(O)CC(c2nc(-c3ccns3)no2)NC1=O` (stereo not shown) [3-227], the mortality at 500 µg/mL in assay [1], in assay [2] and in assay [3] was at least 90% in each case. The mortality at 10 µg/cm2 in assay [4] is at least 50%.

For the compound `O=C(Nc1cc(Cl)ccn1)C1=C(O)CC(c2nc(-c3ccc(F)cc3F)no2)NC1=O` (stereo not shown) [3-155], the mortality at 500 µg/mL in assay [1], in assay [2] and in assay [3] was at least 90% in each case. Further, the mortality at 10 µg/cm2 in assay [4] was at least 50%.

`O=C(Nc1cnc(Cl)cn1)C1=C(O)CC(c2cnc(Cl)c(-c3ccccc3)c2)NC1=O` (stereo not shown) [2-095]: the mortality at 500 µg/mL in assay [1], in assay [2] and in assay [3] was at least 90% in each case. Further, in assay [4], the mortality at 10 µg/cm2 was at least 50%.

On to `O=C(Nc1ccc(F)cn1)C1=C(O)CC(c2nc(-c3cnc(C(F)(F)F)s3)no2)NC1=O` (stereo not shown) [3-264], for which the mortality at 500 µg/mL in assay [1], in assay [2] and in assay [3] was at least 90% throughout. The mortality at 10 µg/cm2 in assay [4] was at least 50%.

Take `O=C(Nc1ncccc1Br)C1=C(O)CC(c2nc(-c3cnccc3F)no2)NC1=O` (stereo not shown) [3-233]: the mortality at 500 µg/mL in assay [1], in assay [2] and in assay [3] was at least 90% in each case. Also, in assay [4], the mortality at 10 µg/cm2 is at least 50%.

As for `O=C(Nc1ccccn1)C1=C(O)CC(c2nc(-c3snc(Cl)c3Cl)no2)NC1=O` (stereo not shown) [3-263], the mortality at 500 µg/mL in assay [1], in assay [2] and in assay [3] was at least 90% throughout. Moreover, the mortality at 10 µg/cm2 in assay [4] is at least 50%.

For the compound `O=C(Nc1cc(F)ccn1)C1=C(O)CC(c2nc(-c3ccsc3Cl)no2)NC1=O` (stereo not shown) [3-235], the mortality at 500 µg/mL in assay [1], in assay [2] and in assay [3] was at least 90% each time. For the same compound, the mortality at 10 µg/cm2 in assay [4] is at least 50%.

Consider `O=C(Nc1nccs1)C1=C(O)CC(c2cnc(Cl)c(-c3ccc(F)cc3)c2)NC1=O` (stereo not shown) [2-235], for which the mortality at 500 µg/mL in assay [1], in assay [2] and in assay [3] was at least 90% each time. In addition, the mortality at 10 µg/cm2 in assay [4] was at least 50%.

For the compound `O=C(Nc1cccnc1)C1=C(O)CC(c2nc(-c3ccc(F)cc3F)no2)NC1=O` (stereo not shown) [3-177], the mortality at 500 µg/mL in assay [1], in assay [2] and in assay [3] was at least 90% each time. The mortality at 10 µg/cm2 in assay [4] is at least 50%.

Regarding `O=C(Nc1ccc(F)cc1)C1=C(O)CC(c2nc(-c3cncc(F)c3)no2)NC1=O` (stereo not shown) [3-021], the mortality at 500 µg/mL in assay [1], in assay [2] and in assay [3] was at least 90% each time. Moreover, the mortality at 10 µg/cm2 in assay [4] was at least 50%.
